Assay results published in ChEMBL document CHEMBL1201862, “PubChem BioAssay data set” (2004).
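Assay format: 96-well plates, 48-hour exposure. GI50 is the concentration that inhibits growth by half.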 Activity calls are given as the source filed them. Cut-off read from the data, not from the text of the source: active = GI50 up to about 1.1 µM and inactive = higher.

Columns and labels:
Assay in all cases: NCI anticancer screen, dose series, 48 h
ACHN = system: ACHN
COLO 205 = system: COLO 205
EKVX = system: EKVX
HCT-116 = system: HCT-116
HCT-15 = system: HCT-15
HL-60 = system: HL-60
KM12 = system: KM12
LOX IMVI = system: LOX IMVI
M14 = system: M14
MCF7 = system: MCF7
MDA-MB-435 = system: MDA-MB-435
Malme-3M = system: Malme-3M
NCI-H23 = system: NCI-H23
OVCAR-8 = system: OVCAR-8
SK-MEL-2 = system: SK-MEL-2
SK-OV-3 = system: SK-OV-3
SNB-19 = system: SNB-19
UACC-62 = system: UACC-62
NCI-H460 = system: NCI-H460
HOP-92 = system: HOP-92

Compound	GI50 (ACHN)	GI50 (COLO 205)	GI50 (EKVX)	GI50 (HCT-116)	GI50 (HCT-15) [µM]	GI50 (HL-60)	GI50 (KM12)	GI50 (LOX IMVI)	GI50 (M14)	GI50 (MCF7)	GI50 (MDA-MB-435)	GI50 (Malme-3M)	GI50 (NCI-H23)	GI50 (OVCAR-8)	GI50 (SK-MEL-2)	GI50 (SK-OV-3)	GI50 (SNB-19)	GI50 (UACC-62)	GI50 (NCI-H460)	GI50 (HOP-92)
N#CC1=C(N)N(c2ccccc2)C(c2ccccc2)C1(C#N)C#N (stereo unspecified)	18.1 µM (inactive)	17.2 µM (inactive)	19.7 µM (inactive)	14.5 µM (inactive)	20.6	17 µM (inactive)	14.5 µM (inactive)	16.6 µM (inactive)	21 µM (inactive)	14.8 µM (inactive)	18.8 µM (inactive)	17.6 µM (inactive)	20.8 µM (inactive)	16.2 µM (inactive)	16.4 µM (inactive)	24.9 µM (inactive)	18.4 µM (inactive)	18.2 µM (inactive)	–	–
CC(=O)O[C@@]12CO[C@@H]1C[C@@H](O)[C@@]1(C)C(=O)[C@H](O)C3=C(C)[C@@H](OC(=O)[C@H](O)[C@@H](NC(=O)c4ccccc4)c4ccccc4)C[C@@](O)([C@@H](OC(=O)c4ccccc4)C12)C3(C)C (stereo partly specified)	2.77 µM (inactive)	< 0.01 µM (active)	4.81 µM (inactive)	< 0.01 µM (active)	3.03	< 0.01 µM (active)	< 0.01 µM (active)	< 0.0303 µM (active)	0.0363 µM (active)	< 0.01 µM (active)	< 0.01 µM (active)	–	0.0379 µM (active)	0.0803 µM (active)	< 0.01 µM (active)	0.026 µM (active)	0.185 µM (active)	< 0.01 µM (active)	0.0217 µM (active)	–
C[C@H](c1ccccc1)N1C(=O)[C@@H](OCc2ccccc2)[C@H]1[C@H](COC(=O)COCc1ccccc1)OCc1ccccc1	> 100 µM (inactive)	> 100 µM (inactive)	> 100 µM (inactive)	> 100 µM (inactive)	> 100	–	> 100 µM (inactive)	> 100 µM (inactive)	> 100 µM (inactive)	> 100 µM (inactive)	54.1 µM (inactive)	11.6 µM (inactive)	57.3 µM (inactive)	–	> 100 µM (inactive)	> 100 µM (inactive)	37.1 µM (inactive)	> 100 µM (inactive)	–	> 100 µM (inactive)
Cc1nc2ccc(C(F)(F)F)cc2nc1NCc1ccc(Cl)c(Cl)c1	14.8 µM (inactive)	15.4 µM (inactive)	14.1 µM (inactive)	16.4 µM (inactive)	12.7	16.7 µM (inactive)	14.2 µM (inactive)	15.3 µM (inactive)	–	10 µM (inactive)	17.4 µM (inactive)	17.2 µM (inactive)	16 µM (inactive)	17.2 µM (inactive)	–	–	18.4 µM (inactive)	3.28 µM (inactive)	32.3 µM (inactive)	–
CC(C)OC(=O)[C@@H]1OC(C)(C)O[C@H]1C(=O)OC(C)C	> 100 µM (inactive)	> 100 µM (inactive)	> 100 µM (inactive)	> 100 µM (inactive)	> 100	–	> 100 µM (inactive)	> 100 µM (inactive)	–	> 100 µM (inactive)	> 100 µM (inactive)	> 100 µM (inactive)	> 100 µM (inactive)	> 100 µM (inactive)	> 100 µM (inactive)	> 100 µM (inactive)	> 100 µM (inactive)	> 100 µM (inactive)	> 100 µM (inactive)	> 100 µM (inactive)
N#CCCN(CCC#N)c1ccc(C(/N=N/c2ccccc2)=N\c2ccccc2)cc1	> 100 µM (inactive)	> 100 µM (inactive)	> 100 µM (inactive)	> 100 µM (inactive)	> 100	–	> 100 µM (inactive)	–	> 100 µM (inactive)	> 100 µM (inactive)	> 100 µM (inactive)	–	> 100 µM (inactive)	> 100 µM (inactive)	> 100 µM (inactive)	> 100 µM (inactive)	> 100 µM (inactive)	> 100 µM (inactive)	> 100 µM (inactive)	> 100 µM (inactive)
O=C1/C(=N/c2ccccc2)Oc2cc(O)ccc21	> 100 µM (inactive)	> 100 µM (inactive)	> 100 µM (inactive)	> 100 µM (inactive)	> 100	–	> 100 µM (inactive)	> 100 µM (inactive)	> 100 µM (inactive)	56.4 µM (inactive)	> 100 µM (inactive)	> 100 µM (inactive)	> 100 µM (inactive)	> 100 µM (inactive)	> 100 µM (inactive)	> 100 µM (inactive)	> 100 µM (inactive)	> 100 µM (inactive)	> 100 µM (inactive)	–
S=C(c1c[nH]c2ccccc12)N1CCN(c2ccccc2)CC1	87.1 µM (inactive)	> 100 µM (inactive)	19.4 µM (inactive)	> 100 µM (inactive)	> 100	> 100 µM (inactive)	82.8 µM (inactive)	> 100 µM (inactive)	> 100 µM (inactive)	> 100 µM (inactive)	> 100 µM (inactive)	18.8 µM (inactive)	> 100 µM (inactive)	37.8 µM (inactive)	> 100 µM (inactive)	> 100 µM (inactive)	> 100 µM (inactive)	> 100 µM (inactive)	> 100 µM (inactive)	–
